Experimental findings from patent publication US9132126B2, “Phenyl-isoxazole derivatives and preparation process thereof” (priority 2011, dated 2015) are described below.

The subject of this test is Oseltamivir resistant strain virus. Put plainly: microbe, parasite or virus in culture. The class given is cell-based, influenza virus.
The mark [1] stands for this setting: unidentified influenza virus, read-out: EC50.

A word on the EC50: it is the concentration that produces a half-maximal response.

Values after ≈ are worked out from the molar mass of the structure shown. Like-named read-outs stand apart in the source and are kept apart here.

With `COc1cccc(N2CCN(C(=O)c3c(-c4cccc(F)c4)noc3C)CC2)c1` [Example 12, (3-(3-fluorophenyl)-5-methylisoxazol-4-yl)(4-(3-methoxyphenyl)piperazine-1-yl)methanone], the SI value was 50.016 to 100.032. In addition, the “antiviral activity effect on a virus strain resistant to Oseltamivir (tamiflu)” value (“antiviral activity effect” for short) (in words) is recorded as “high antiviral activity effect”. The 50% effective concentration (EC50) under setting [1] is 1.56 µg/mL (≈ 3.95 µM).
Consider `CCOC(=O)C1CCN(C(=O)c2c(-c3ccccc3OC(F)(F)F)noc2N)CC1` [Example 124], for which the SI value turned out to be 12.5 and the “antiviral activity effect” value is recorded as “high antiviral activity effect”. Where the note is “Oseltamivir resistant strain”, this compound displayed a 50% effective concentration (EC50) of 25 µg/mL (≈ 58.5 µM).
On the same counts, the results for `COc1ccccc1N1CCN(C(=O)c2c(-c3ccccc3C(F)(F)F)noc2C)CC1` [Example 4] are 1.563 to 3.125, “high antiviral activity effect” and 50 µg/mL (≈ 112 µM).
With `COc1cccc(N2CCN(C(=O)c3c(-c4ccccc4Cl)noc3N)CC2)c1` [Example 60, (5-amino-3-(2-chlorophenyl)isoxazol-4-yl)(4-(3-methoxyphenyl)piperazine-1-yl)methanone], the “antiviral activity effect” value (in words) is recorded as “high antiviral activity effect”. Besides, the EC50 under setting [1] was 0.053 to 0.094 µg/mL (≈ 0.128 to 0.228 µM).
For the compound `Cc1onc(-c2cccc(F)c2)c1C(=O)N1CCN(c2ccccc2O)CC1` [Example 16, (3-(3-fluorophenyl)-5-methylisoxazol-4-yl)(4-(2-hydroxyphenyl)piperazine-1-yl)methanone], the SI value is recorded as 100.032 to 200.321. For the same compound, the “antiviral activity effect” value (in words) is listed as “high antiviral activity effect”. Also, the 50% effective concentration (EC50) under setting [1] lay within 0.39 to 0.781 µg/mL (≈ 1.02 to 2.05 µM).
For `Cc1onc(-c2cccc(F)c2)c1C(=O)N1CCN(c2ccc(Cl)c(Cl)c2)CC1` [Example 11, (4-(3,4-dichlorophenyl)piperazine-1-yl)(3-(3-fluorophenyl)-5-methylisoxazol-4-yl)methanone], the SI value was in the range of 1471.794 to 3205.128. Also, the “antiviral activity effect” value (in words) is reported as “high antiviral activity effect”. In addition, the EC50 under setting [1] was 0.195 µg/mL (≈ 0.449 µM).
Consider `CCOC(=O)C1=C[C@@H](OC(CC)CC)[C@H](NC(C)=O)[C@@H](N)C1` [Oseltamivir, reference compound], for which the SI value lay in the range of 12.5 to 25. Further, under setting [1], the 50% effective concentration (EC50) came out at 50 µg/mL (≈ 160 µM).
In the case of `COc1cccc(N2CCN(C(=O)c3c(-c4ccccc4C(F)(F)F)noc3C)CC2)c1` [Example 3, (4-(3-methoxyphenyl)piperazine-1-yl)(5-methyl-3-(2-(trifluoromethyl)phenyl)isoxazol-4-yl)methanone], the SI value lay within 3276.59 to 9812.50. In addition, the “antiviral activity effect” value (in words) is recorded as “high antiviral activity effect”. Moreover, under setting [1], the EC50 lay in the range of 0.064 to 0.094 µg/mL (≈ 0.144 to 0.211 µM).
In the same order, the values of `COc1cccc(N2CCN(C(=O)c3c(-c4ccccc4Cl)noc3C)CC2)c1` [Example 9, (3-(2-chlorophenyl)-5-methylisoxazol-4-yl)(4-(3-methoxyphenyl)piperazine-1-yl)methanone] are 3221.649 to 13020.833, “high antiviral activity effect” and 0.048 to 0.097 µg/mL (≈ 0.117 to 0.236 µM).
In turn, `Cc1onc(-c2ccccc2OC(F)(F)F)c1C(=O)N1CCN(c2ccc(Cl)c(Cl)c2)CC1` [Example 35, (4-(3,4-dichlorophenyl)piperazine-1-yl)(5-methyl-3-(2-(trifluoromethoxy)phenyl)isoxazol-4-yl)methanone] gave an SI value of 1602.564 to 3205.128. For the same compound, the “antiviral activity effect” value (in words) was “high antiviral activity effect”. For the same compound, under setting [1], the concentration giving a half-maximal response (EC50) worked out at 0.195 µg/mL (≈ 0.39 µM).
